# From ChEMBL document CHEMBL3885881, “DrugMatrix”
# Species on record: Rattus norvegicus
# Assay: DrugMatrix - Regimen: Daily Repeat
# Assay type: toxicity, organism-based, Sprague-Dawley
# Parameters: regimen Daily Repeat, gender Male, age 6-8 weeks
# Details: in vivo, po, route oral GAVAGE, vehicle .5 % CMC; for ABSOLUTE BASOPHIL / ABSOLUTE EOSINOPHIL / ABSOLUTE LYMPHOCYTE / ABSOLUTE SEGMENTED NEUTROPHIL / BASOPHIL / EOSINOPHIL / ERYTHROCYTE COUNT / HEMATOCRIT / HEMOGLOBIN / LEUKOCYTE COUNT / LYMPHOCYTE / MEAN CORPUSCULAR HEMOGLOBIN / MEAN CORPUSCULAR HEMOGLOBIN CONCENTRATION / MEAN CORPUSCULAR VOLUME / MONOCYTE / NEUTROPHIL / NUCLEATED RED BLOOD CELLS / PLATELET COUNT: tissue Blood; for ALANINE AMINOTRANSFERASE / ASPARTATE AMINOTRANSFERASE / BLOOD UREA NITROGEN / CARBON DIOXIDE / CHLORIDE / CHOLESTEROL / CREATINE PHOSPHOKINASE / CREATININE / GLUCOSE / LACTATE DEHYDROGENASE / LIPASE / PHOSPHORUS / POTASSIUM / SODIUM / TOTAL BILIRUBIN / TOTAL PROTEIN / URIC ACID: tissue Plasma
# [1] = 30 mg/kg, 72 h, dose level Low, time 3 day
# [2] = 30 mg/kg, 120 h, dose level Low, time 5 day
# [3] = 490 mg/kg, 72 h, dose level High, time 3 day
# [4] = 490 mg/kg, 120 h, dose level High, time 5 day
structure (smiles),measurement,setting,value
NC(=O)N1c2ccccc2C=Cc2ccccc21 [CARBAMAZEPINE],ABSOLUTE BASOPHIL,[1],0 CELLS/uL
same,ABSOLUTE EOSINOPHIL,[1],182 CELLS/uL
same,ABSOLUTE LYMPHOCYTE,[1],15035.33 CELLS/uL
same,ABSOLUTE SEGMENTED NEUTROPHIL,[1],1745.67 CELLS/uL
same,BASOPHIL,[1],0%
same,EOSINOPHIL,[1],1%
same,ERYTHROCYTE COUNT,[1],5.25 x10E6/uL
same,HEMATOCRIT,[1],33.47%
same,HEMOGLOBIN,[1],12.6 G/DL
same,LEUKOCYTE COUNT,[1],17.3 x10E3/uL
same,LYMPHOCYTE,[1],86.67%
same,MEAN CORPUSCULAR HEMOGLOBIN,[1],24.03 pg
same,MEAN CORPUSCULAR HEMOGLOBIN CONCENTRATION,[1],37.67 G/DL
same,MEAN CORPUSCULAR VOLUME,[1],63.8 fL
same,MONOCYTE,[1],2%
same,NEUTROPHIL,[1],10.33%
same,NUCLEATED RED BLOOD CELLS,[1],0 /100WBC
same,PLATELET COUNT,[1],1486.67 x10E3/uL
same,ALANINE AMINOTRANSFERASE,[1],52 u/L
same,ASPARTATE AMINOTRANSFERASE,[1],78.33 u/L
same,BLOOD UREA NITROGEN,[1],16.33 mg/dL
same,CARBON DIOXIDE,[1],25.67 mmol/L
same,CHLORIDE,[1],101.67 MEQ/L
same,CHOLESTEROL,[1],69.67 mg/dL
same,CREATINE PHOSPHOKINASE,[1],157.33 u/L
same,CREATININE,[1],0.2 mg/dL
same,GLUCOSE,[1],143.33 mg/dL
same,LACTATE DEHYDROGENASE,[1],208 u/L
same,LIPASE,[1],9 u/L
same,PHOSPHORUS,[1],11.33 mg/dL
same,POTASSIUM,[1],6.9 MEQ/L
same,SODIUM,[1],145 MEQ/L
same,TOTAL BILIRUBIN,[1],0.2 mg/dL
same,TOTAL PROTEIN,[1],5.53 G/DL
same,URIC ACID,[1],1.57 mg/dL
same,ABSOLUTE BASOPHIL,[2],0 CELLS/uL
same,ABSOLUTE EOSINOPHIL,[2],0 CELLS/uL
same,ABSOLUTE LYMPHOCYTE,[2],16159 CELLS/uL
same,ABSOLUTE SEGMENTED NEUTROPHIL,[2],1742.33 CELLS/uL
same,BASOPHIL,[2],0%
same,EOSINOPHIL,[2],0%
same,ERYTHROCYTE COUNT,[2],5.72 x10E6/uL
same,HEMATOCRIT,[2],35.57%
same,HEMOGLOBIN,[2],13.07 G/DL
same,LEUKOCYTE COUNT,[2],18.27 x10E3/uL
same,LYMPHOCYTE,[2],88.33%
same,MEAN CORPUSCULAR HEMOGLOBIN,[2],22.87 pg
same,MEAN CORPUSCULAR HEMOGLOBIN CONCENTRATION,[2],36.73 G/DL
same,MEAN CORPUSCULAR VOLUME,[2],62.2 fL
same,MONOCYTE,[2],2%
same,NEUTROPHIL,[2],9.67%
same,NUCLEATED RED BLOOD CELLS,[2],0 /100WBC
same,PLATELET COUNT,[2],1400 x10E3/uL
same,ALANINE AMINOTRANSFERASE,[2],40 u/L
same,ASPARTATE AMINOTRANSFERASE,[2],84 u/L
same,BLOOD UREA NITROGEN,[2],19.67 mg/dL
same,CARBON DIOXIDE,[2],25.33 mmol/L
same,CHLORIDE,[2],106.67 MEQ/L
same,CHOLESTEROL,[2],60 mg/dL
same,CREATINE PHOSPHOKINASE,[2],371 u/L
same,CREATININE,[2],0.18 mg/dL
same,GLUCOSE,[2],138.67 mg/dL
same,LACTATE DEHYDROGENASE,[2],600.67 u/L
same,LIPASE,[2],8.67 u/L
same,PHOSPHORUS,[2],11.47 mg/dL
same,POTASSIUM,[2],6.31 MEQ/L
same,SODIUM,[2],144.97 MEQ/L
same,TOTAL BILIRUBIN,[2],0.17 mg/dL
same,TOTAL PROTEIN,[2],6.17 G/DL
same,URIC ACID,[2],1.2 mg/dL
same,ABSOLUTE BASOPHIL,[3],0 CELLS/uL
same,ABSOLUTE EOSINOPHIL,[3],197 CELLS/uL
same,ABSOLUTE LYMPHOCYTE,[3],13021 CELLS/uL
same,ABSOLUTE SEGMENTED NEUTROPHIL,[3],740.67 CELLS/uL
same,BASOPHIL,[3],0%
same,EOSINOPHIL,[3],1%
same,ERYTHROCYTE COUNT,[3],6.01 x10E6/uL
same,HEMATOCRIT,[3],37.5%
same,HEMOGLOBIN,[3],14.23 G/DL
same,LEUKOCYTE COUNT,[3],14.27 x10E3/uL
same,LYMPHOCYTE,[3],91.33%
same,MEAN CORPUSCULAR HEMOGLOBIN,[3],23.77 pg
same,MEAN CORPUSCULAR HEMOGLOBIN CONCENTRATION,[3],37.97 G/DL
same,MEAN CORPUSCULAR VOLUME,[3],62.57 fL
same,MONOCYTE,[3],2%
same,NEUTROPHIL,[3],5.67%
same,NUCLEATED RED BLOOD CELLS,[3],0 /100WBC
same,PLATELET COUNT,[3],1370 x10E3/uL
same,ALANINE AMINOTRANSFERASE,[3],67 u/L
same,ASPARTATE AMINOTRANSFERASE,[3],98.33 u/L
same,BLOOD UREA NITROGEN,[3],20.33 mg/dL
same,CARBON DIOXIDE,[3],23.67 mmol/L
same,CHLORIDE,[3],100.67 MEQ/L
same,CHOLESTEROL,[3],62.67 mg/dL
same,CREATINE PHOSPHOKINASE,[3],423.33 u/L
same,CREATININE,[3],0.18 mg/dL
same,GLUCOSE,[3],127 mg/dL
same,LACTATE DEHYDROGENASE,[3],617.67 u/L
same,LIPASE,[3],9.33 u/L
same,PHOSPHORUS,[3],11.33 mg/dL
same,POTASSIUM,[3],6.92 MEQ/L
same,SODIUM,[3],141.13 MEQ/L
same,TOTAL BILIRUBIN,[3],0.17 mg/dL
same,TOTAL PROTEIN,[3],5.83 G/DL
same,URIC ACID,[3],1.87 mg/dL
same,ABSOLUTE BASOPHIL,[4],0 CELLS/uL
same,ABSOLUTE EOSINOPHIL,[4],174 CELLS/uL
same,ABSOLUTE LYMPHOCYTE,[4],14815.33 CELLS/uL
same,ABSOLUTE SEGMENTED NEUTROPHIL,[4],1394.67 CELLS/uL
same,BASOPHIL,[4],0%
same,EOSINOPHIL,[4],1%
same,ERYTHROCYTE COUNT,[4],6.46 x10E6/uL
same,HEMATOCRIT,[4],39.9%
same,HEMOGLOBIN,[4],15.17 G/DL
same,LEUKOCYTE COUNT,[4],17.07 x10E3/uL
same,LYMPHOCYTE,[4],86.67%
same,MEAN CORPUSCULAR HEMOGLOBIN,[4],23.47 pg
same,MEAN CORPUSCULAR HEMOGLOBIN CONCENTRATION,[4],38.03 G/DL
same,MEAN CORPUSCULAR VOLUME,[4],61.8 fL
same,MONOCYTE,[4],4%
same,NEUTROPHIL,[4],8.33%
same,NUCLEATED RED BLOOD CELLS,[4],0.67 /100WBC
same,PLATELET COUNT,[4],1286 x10E3/uL
same,ALANINE AMINOTRANSFERASE,[4],89 u/L
same,ASPARTATE AMINOTRANSFERASE,[4],125 u/L
same,BLOOD UREA NITROGEN,[4],18.67 mg/dL
same,CARBON DIOXIDE,[4],23.67 mmol/L
same,CHLORIDE,[4],105 MEQ/L
same,CHOLESTEROL,[4],67.33 mg/dL
same,CREATINE PHOSPHOKINASE,[4],770 u/L
same,CREATININE,[4],0.14 mg/dL
same,GLUCOSE,[4],120 mg/dL
same,LACTATE DEHYDROGENASE,[4],265.67 u/L
same,LIPASE,[4],9.5 u/L
same,PHOSPHORUS,[4],12.47 mg/dL
same,POTASSIUM,[4],6.33 MEQ/L
same,SODIUM,[4],149.25 MEQ/L
same,TOTAL BILIRUBIN,[4],0.2 mg/dL
same,TOTAL PROTEIN,[4],6.23 G/DL
same,URIC ACID,[4],2.13 mg/dL
